Experimental data from patent US10336725B2, “Chemical compounds” (AstraZeneca AB, priority 2014, dated 2019).
pIC50: −log10 of the molar value. Counter-ions that a name gives are not always drawn.

How the values were obtained:
Sodium Channel ENaC = target: T1, Sodium Channel ENaC (Homo sapiens, UniProt P37088+P51168+P51170); assay: Sodium Channel ENaC Ussing Chamber Test (short circuit current); type: cell-based; conditions: human primary bronchial epithelial cells at air-liquid interface; inhibition of short circuit current; compounds added to the apical side
T1 construct: Human primary bronchial epithelial cells differentiated at air-liquid interface (ALI); host or cells: Human primary bronchial epithelial cells differentiated at air-liquid interface
T1 sequence (P37088 1-669): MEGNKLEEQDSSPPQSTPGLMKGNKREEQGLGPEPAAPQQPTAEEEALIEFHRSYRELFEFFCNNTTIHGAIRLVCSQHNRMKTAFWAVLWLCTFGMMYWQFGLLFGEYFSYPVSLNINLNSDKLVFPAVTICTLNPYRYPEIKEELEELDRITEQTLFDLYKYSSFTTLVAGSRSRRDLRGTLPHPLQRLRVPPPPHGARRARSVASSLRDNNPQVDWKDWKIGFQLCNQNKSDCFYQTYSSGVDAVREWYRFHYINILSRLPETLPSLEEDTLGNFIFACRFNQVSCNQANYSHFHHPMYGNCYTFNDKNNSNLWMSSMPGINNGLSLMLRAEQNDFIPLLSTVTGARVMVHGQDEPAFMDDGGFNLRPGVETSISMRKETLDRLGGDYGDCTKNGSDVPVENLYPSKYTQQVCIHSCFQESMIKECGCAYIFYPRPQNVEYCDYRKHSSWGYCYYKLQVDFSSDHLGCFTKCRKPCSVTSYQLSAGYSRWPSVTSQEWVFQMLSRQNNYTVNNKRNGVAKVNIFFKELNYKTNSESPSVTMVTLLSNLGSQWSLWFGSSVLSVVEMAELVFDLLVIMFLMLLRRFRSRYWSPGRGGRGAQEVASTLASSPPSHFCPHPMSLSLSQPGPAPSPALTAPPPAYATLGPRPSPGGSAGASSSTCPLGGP
T1 sequence (P51168 1-640): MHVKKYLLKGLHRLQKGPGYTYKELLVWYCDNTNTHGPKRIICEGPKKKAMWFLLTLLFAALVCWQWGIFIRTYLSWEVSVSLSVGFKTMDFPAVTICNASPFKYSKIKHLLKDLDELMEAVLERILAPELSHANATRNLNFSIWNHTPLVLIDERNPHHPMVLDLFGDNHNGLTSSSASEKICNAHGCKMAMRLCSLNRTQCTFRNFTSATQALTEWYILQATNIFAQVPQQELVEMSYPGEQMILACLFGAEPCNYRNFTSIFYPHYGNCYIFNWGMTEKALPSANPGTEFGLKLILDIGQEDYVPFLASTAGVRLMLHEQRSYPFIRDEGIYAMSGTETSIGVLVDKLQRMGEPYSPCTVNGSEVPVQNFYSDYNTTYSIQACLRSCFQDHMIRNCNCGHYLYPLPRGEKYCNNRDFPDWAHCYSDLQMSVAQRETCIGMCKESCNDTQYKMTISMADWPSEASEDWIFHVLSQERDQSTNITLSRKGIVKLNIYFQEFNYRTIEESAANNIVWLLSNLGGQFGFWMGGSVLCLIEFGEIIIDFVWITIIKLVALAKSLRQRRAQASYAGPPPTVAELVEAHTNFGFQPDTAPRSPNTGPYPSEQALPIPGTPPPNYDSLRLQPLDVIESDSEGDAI
T1 sequence (P51170 1-649): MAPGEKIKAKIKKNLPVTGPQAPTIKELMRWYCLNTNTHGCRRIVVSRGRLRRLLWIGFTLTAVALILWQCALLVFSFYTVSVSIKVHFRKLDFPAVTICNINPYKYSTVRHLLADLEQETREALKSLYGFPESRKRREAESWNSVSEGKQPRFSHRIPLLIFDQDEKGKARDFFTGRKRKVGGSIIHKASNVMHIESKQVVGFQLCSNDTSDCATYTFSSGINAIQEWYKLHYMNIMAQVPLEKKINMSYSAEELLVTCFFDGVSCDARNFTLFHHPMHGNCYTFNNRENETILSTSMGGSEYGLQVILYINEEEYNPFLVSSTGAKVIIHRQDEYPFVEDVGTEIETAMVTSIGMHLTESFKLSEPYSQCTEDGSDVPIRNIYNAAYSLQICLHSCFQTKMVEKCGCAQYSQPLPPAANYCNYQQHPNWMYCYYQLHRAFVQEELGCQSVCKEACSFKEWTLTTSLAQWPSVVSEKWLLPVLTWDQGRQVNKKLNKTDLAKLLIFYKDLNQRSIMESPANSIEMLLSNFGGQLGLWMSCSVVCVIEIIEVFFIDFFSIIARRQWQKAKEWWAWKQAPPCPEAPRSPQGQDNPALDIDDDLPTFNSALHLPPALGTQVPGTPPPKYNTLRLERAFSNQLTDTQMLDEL
Description: Sodium Channel ENaC Ussing Chamber Test
Human primary bronchial epithelial cells differentiated at air-liquid interface (ALI) on snapwell permeable supports (MatTek Corporation, MA, USA, cat no AIR-100-SNP) were maintained at ALI culture in a humidified incubator at 37° C. and 5% CO2. Basolateral medium (MatTek Corporation, MA, USA cat no AIR-100-MM-ASY) was changed every second day. Mucus or liquid formed on the apical side was gently aspirated every second day to maintain viability and performance of the cells.
The transepithelial voltage between the luminal/apical and basolateral membrane were measured in the ussing chamber consisted of vertical, in-house manufactured ussing chambers, DVC-1000 V/C clamps with preamplifiers (World Precision Instruments), electrode kits (EK1, World Precision Instruments), Power Lab with Chart5 software, water bath with external circulation and carbogen gas distribution and regulation system. Electrodes used in the set up were casted manually using 4% agarose in 0.9% sterile NaCl according to the manufacturer's recommendation.
The ussing chambers were assembled with an empty snapwell membrane (Costar 3407) and electrodes contained in Kreb's buffer (SIGMA-ALDRICH cat no K3753) for one hour at 37° C. in presence of 95% oxygen and 5% carbon dioxide. After this equilibration step the system was compensated for fluid resistance and input offset.
The equilibrated chambers were reassembled with a snapwell containing ALI cells and after 20 minutes stabilisation cumulative doses of the compounds were added to the apical side of the membrane. After the final dose 10 μM Benzamil was added to reach maximum.
All test compounds, including the reference compound, were diluted from 10 mM stocks in 100% DMSO and added to opaque 96-well plates (Greiner, Cat No. 651201). Dilution series of 12 doses were prepared in DMSO, starting with 3 μM followed by 10 times dilution steps.
Chart5 for Windows software was used to measure the value of the short circuit current after each compound addition. The data was transferred into Excel and analysed using IDBS XLfit® 5.2 (ID Business Solutions Ltd). The molar concentration of test or reference compound producing 50% inhibition (curve IC50) was derived by fitting data to a 4-parameter logistic function of the form: y=(A+((B−A)/(1+(((10^C)/x)^D))))
A The bottom plateau of the curve, i.e. the final minimum y value
B The top of the plateau of the curve i.e. the final maximum y value
C The log10 x value at a y value of 50%.

normal subjects = conditions: treatment of normal subjects; cited from earlier work
[1] = test system: ENaC β-subunit overexpressing transgenic mice; conditions: administration to the lungs of the mice for 14 days after birth; cited from earlier work

pIC50 (Sodium Channel ENaC)	SMILES	ASL volume (normal subjects)	MCC rates (normal subjects)	mortality [1]
10.10	CCCCCCN(CCNC(=O)c1ccc(CCNC[C@H](CNC(=O)c2nc(Cl)c(N)nc2N)Cc2ccccc2C)cc1)C[C@H](O)[C@@H](O)[C@H](O)CO [Example 13, 3,5-diamino-6-chloro-N—((R)-3-((4-((2-(hexyl((2S,3R,4R)-2,3,4,5-tetrahydroxypentyl)amino)ethyl)carbamoyl)phenethyl)amino)-2-(2-methylbenzyl)propyl)pyrazine-2-carboxamide Dihydrochloride]	–	–	–
7.50	CCCCCCN(CCNC(=O)c1ccc(CNC[C@@H](CNC(=O)c2nc(Cl)c(N)nc2N)Cc2ccccc2C)cc1)C[C@H](O)[C@@H](O)[C@H](O)CO [Example 14, 3,5-diamino-6-chloro-N—((S)-3-((4-((2-(hexyl((2S,3R,4R)-2,3,4,5-tetrahydroxypentyl)amino)ethyl)carbamoyl)benzyl)amino)-2-(2-methylbenzyl)propyl)pyrazine-2-carboxamide Acetic Acid]	–	–	–
–	N=C(N)NC(=O)c1nc(Cl)c(N)nc1N [amiloride]	increases	increases	significantly reduced
